Laboratory results from ChEMBL document CHEMBL1201862, “PubChem BioAssay data set” (2004).
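Five compound concentrations were applied to cells in 96-well plates for 48 hours; endpoints were derived by simple linear interpolation of the resulting dose-response curve. GI50 is the concentration that inhibits growth by half.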 Calls of active or inactive are those of the source. No stated cut-off is given here; in the data, active = GI50 up to about 1.1 µM and inactive = higher.

What was measured:
Assay in all cases: growth of human tumour cells (NCI), 48 h
A498 = test system: A498
ACHN = test system: ACHN
A549 = test system: A549
UACC-257 = test system: UACC-257
SNB-19 = test system: SNB-19
NCI-H522 = test system: NCI-H522
UACC-62 = test system: UACC-62
NCI-H460 = test system: NCI-H460
M14 = test system: M14
K562 = test system: K562
OVCAR-3 = test system: OVCAR-3
NCI-H23 = test system: NCI-H23
U-251 = test system: U-251
RPMI-8226 = test system: RPMI-8226
IGROV-1 = test system: IGROV-1
HOP-92 = test system: HOP-92
CCRF-CEM = test system: CCRF-CEM
SNB-75 = test system: SNB-75
EKVX = test system: EKVX
SW-620 = test system: SW-620

Row | SMILES | GI50 (A498) | GI50 (ACHN) | GI50 (A549) | GI50 (UACC-257) | GI50 (SNB-19) | GI50 (NCI-H522) | GI50 (UACC-62) | GI50 (NCI-H460) | GI50 (M14) | GI50 (K562) | GI50 (OVCAR-3) | GI50 (NCI-H23) | GI50 (U-251) | GI50 (RPMI-8226) | GI50 (IGROV-1) | GI50 (HOP-92) | GI50 (CCRF-CEM) | GI50 (SNB-75) | GI50 (EKVX) | GI50 (SW-620)
1 | COc1ccc(C2C(C#N)=C(S)N(C3OC(COC(C)=O)C(OC(C)=O)C(OC(C)=O)C3OC(C)=O)C(c3ccccc3)=C2C(C)=O)cc1 (stereo not drawn) | > 100 µM (inactive) | > 100 µM (inactive) | > 100 µM (inactive) | > 100 µM (inactive) | > 100 µM (inactive) | 61.4 µM (inactive) | 41.8 µM (inactive) | > 100 µM (inactive) | > 100 µM (inactive) | 37.5 µM (inactive) | > 100 µM (inactive) | > 100 µM (inactive) | > 100 µM (inactive) | 92 µM (inactive) | > 100 µM (inactive) | > 100 µM (inactive) | > 100 µM (inactive) | 18.7 µM (inactive) | – | –
2 | CS/C(c1ccccc1)=[N+](\[O-])Cc1ccccc1 | > 100 µM (inactive) | > 100 µM (inactive) | > 100 µM (inactive) | > 100 µM (inactive) | > 100 µM (inactive) | 90.2 µM (inactive) | > 100 µM (inactive) | 33.6 µM (inactive) | > 100 µM (inactive) | > 100 µM (inactive) | > 100 µM (inactive) | > 100 µM (inactive) | > 100 µM (inactive) | 27.1 µM (inactive) | > 100 µM (inactive) | > 100 µM (inactive) | 39.4 µM (inactive) | > 100 µM (inactive) | > 100 µM (inactive) | –
3 | C=C(C)C12OC3(c4ccccc4)OC1C1C4OC4(CO)C(O)C4(O)C(=O)C(C)=CC4C1(O3)C(C)C2OC(=O)/C=C/C=C/c1ccccc1 (stereo not drawn) | < 0.0005 µM (active) | < 0.0005 µM (active) | < 0.0005 µM (active) | 0.453 µM (active) | 0.713 µM (active) | 0.267 µM (active) | 0.253 µM (active) | < 0.0005 µM (active) | 0.0853 µM (active) | < 0.0005 µM (active) | 0.109 µM (active) | 0.312 µM (active) | 0.197 µM (active) | 0.107 µM (active) | 0.537 µM (active) | < 0.0005 µM (active) | 0.128 µM (active) | 0.132 µM (active) | 0.188 µM (active) | –
4 | CCOC(=O)CN(Cc1ccccc1)Cc1c(C(=O)c2ccccc2)c2ccccc2n1C(=O)c1ccccc1 | > 100 µM (inactive) | > 100 µM (inactive) | > 100 µM (inactive) | – | > 100 µM (inactive) | > 100 µM (inactive) | > 100 µM (inactive) | > 100 µM (inactive) | > 100 µM (inactive) | > 100 µM (inactive) | > 100 µM (inactive) | > 100 µM (inactive) | > 100 µM (inactive) | 17.9 µM (inactive) | > 100 µM (inactive) | 10.4 µM (inactive) | > 100 µM (inactive) | 18.3 µM (inactive) | > 100 µM (inactive) | > 100 µM (inactive)
5 | COP1(=S)OCC2CCC[C@@H]2O1 (stereo partly drawn) | > 100 µM (inactive) | > 100 µM (inactive) | > 100 µM (inactive) | > 100 µM (inactive) | > 100 µM (inactive) | > 100 µM (inactive) | > 100 µM (inactive) | > 100 µM (inactive) | > 100 µM (inactive) | > 100 µM (inactive) | > 100 µM (inactive) | > 100 µM (inactive) | > 100 µM (inactive) | > 100 µM (inactive) | > 100 µM (inactive) | > 100 µM (inactive) | > 100 µM (inactive) | > 100 µM (inactive) | – | > 100 µM (inactive)
6 | Nc1ccc(COC(O)CN2CCCCC2)cc1[N+](=O)[O-] (stereo not drawn) | > 100 µM (inactive) | > 100 µM (inactive) | > 100 µM (inactive) | > 100 µM (inactive) | > 100 µM (inactive) | > 100 µM (inactive) | > 100 µM (inactive) | > 100 µM (inactive) | > 100 µM (inactive) | > 100 µM (inactive) | > 100 µM (inactive) | > 100 µM (inactive) | > 100 µM (inactive) | > 100 µM (inactive) | > 100 µM (inactive) | > 100 µM (inactive) | > 100 µM (inactive) | 70.5 µM (inactive) | – | > 100 µM (inactive)
